Source: patent publication US5767134A, “Prodrug forms of ribonucleotide reductase inhibitors 3-AP and 3-AMP” (Vion Pharmaceuticals, Inc., priority 1997, dated 1998)
Structures can show the parent of a compound that is named as a salt.

Legend:
[1] = Conversion of Prodrug I (para) to 3-AP in vitro in presence of S9 fraction of rat liver (FIG. 9); format: in vitro ADME
Protocol: FIG. 9 depicts a graph of the conversion of Prodrug I (para) to 3-AP in the presence of liver S9 fraction.
A 1 μM solution of Prodrug I in culture media was incubated with approximately 2.5 mg of liver S9 fraction.

[2] = Stability of Prodrug I in culture media alone, HPLC assay; format: in vitro ADME; conditions: 37° C., two hours
[3] = tested on: M109 tumor cells; experiment: In vivo efficacy, M109 tumor growth in Balb/c mice (FIG. 10); conditions: 10 mg/kg per injection vs equal molar dose of 3-AP (4.5 mg/kg)
Protocol: (§1) FIGS. 10 and 11 depict a graph comparing the reduction in M109 tumor growth in Balb/c Mice treated with a control, 3-AP or Prodrug I (para).
(§2) Balb/c mice were subcutaneously injected in the right flank on Day 0 with 0.2 mL of a 5×10^6 cell/mL suspension of M109 tumor cells which had been grown to log phase in culture, trypsin digested to separate, washed with PBS and reconstituted. Injections of 3-AP, Prodrug I, or Vehicle Control were given to the […] twice on Day 3, once on Day 4, twice on Day 6 and once on Day 7. Ten mice received only injections of 3 AP, each injection providing a dose of 4.5 mg/kg body weight. Ten mice received only injections of Prodrug I, each injection providing a dose of 10 mg/kg body weight. Ten mice received only injections of the vehicle control. […] FIG. 11 also compares the reduction in M109 tumor growth in Balb/c Mice using two vehicle controls (1-phosphate buffered […] and 2- 10% DMSO). […] Control I was used as a control for the prodrug; control 2 was used for the parent drug.
(§3) Balb/c mice were subcutaneously injected in the right flank on Day 0 with 0.2 mL of a 5×10^6 cell/mL suspension of M109 tumor cells which had been grown to log phase in culture, trypsin digested to separate, washed with PBS and reconstituted. […]

[4] = tested on: M109 tumor; experiment: M109 tumor growth in Balb/c mice with two vehicle controls (FIG. 11); format: in vivo
Protocol: as §1, §2, §3

[5] = Water solubility in deionized water; format: physicochemical; conditions: for Dissolution observed in water: 3-AP: 5 mg in 100 mL, room temperature, 2 hours, prodrug I: 8 mg in 0.5 mL, a few minutes
Protocol: In order to test the water solubility of Prodrug I (disodium salt) compared to 3-AP, the following procedure was used. To test the water solubility of 3-AP in deionized water, 5 mg of 3-AP was placed in a 125 mL erlenmeyer flask to which was added 100 mL of water. The mixture was well shaken at room temperature. […] Total water solubility of 3-AP in deionized water was <1 mg/20 mL. In the case of prodrug I (para), 8 mg of the prodrug was placed in a 50 mL erlenmeyer flask.

[6] = tested on: L1210 leukemia; conditions: compared with other HCTs reported to date; cited from earlier work
[7] = tested on: M-109 lung carcinoma; conditions: compared with other HCTs reported to date; cited from earlier work
[8] = tested on: A2780 human ovarian carcinoma; conditions: compared with other HCTs reported to date; cited from earlier work
[9] = vs hydroxyurea; cited from earlier work

## NC(=S)NN=Cc1ncccc1NC(=O)OCc1ccc(OP(=O)(O)O)cc1 [Prodrug I (para)]
[1]; 1 μM, approximately 2.5 mg liver S9 fraction, 37° C.
  Course of prodrug concentration with liver S9 fraction: decreased very rapidly
[1]; 1 μM, approximately 2.5 mg liver S9 fraction, after 100 minutes at 37° C.
  Prodrug concentration after incubation with liver S9 fraction: below detection limits
[1]; 1 μM, liver S9 fraction, 37° C.
  Other metabolites found: no other metabolites were found
[1]; liver S9 fraction, 37° C.
  Rate of conversion of Prodrug I to 3-AP: 20 nmole/min/mg rat liver tissue
[1]; rat, 1 μM, liver S9 fraction, 37° C., read-out: Prodrug recovered as 3-AP
  metabolised at 1 µM: ~80%
[2]
  Prodrug concentration in culture media alone: relatively stable
[2]; HPLC
  3-AP found in culture media alone: no 3-AP was found
[3]; tumors measured Days 7, 10, 13, 17
  Reduction of tumor growth compared with 3-AP: significantly more effective
[3]; tumors measured Days 7, 10, 13, 17, listed as Prodrug I
  Reduction of tumor growth compared with 3-AP: slightly more effective
[4]; controls PBS and 10% DMSO
  Anti-tumor activity compared to 3-AP or the two controls: superior anti-tumor activity
[4]; mole-to-mole basis
  Reduction of M109 tumor growth compared with 3-AP: more effective

## NC(=S)NN=Cc1ncccc1N [Prodrug 3-AP, 3-aminopyridine-2-carboxaldehyde thiosemicarbazone]
[5]
  Dissolution observed in water: not totally dissolved
[5]; 120 min
  Total water solubility in deionized water: < 1 mg/20 mL
[1]; liver S9 fraction
  Stability of recovered 3-AP in liver S9 fraction: stable
[6]
  Therapeutic effects against L1210 leukemia: much better therapeutic effects
[7]
  Therapeutic effects against M-109 lung carcinoma: much better therapeutic effects
[8]
  Therapeutic effects against A2780 human ovarian carcinoma: much better therapeutic effects
[9]
  Antineoplastic activity in comparison with hydroxyurea (HU): significant antineoplastic activity

## Cc1ccnc(C=NNC(N)=S)c1N [Prodrug 3-AMP, 3-amino-4-methylpyridine-2-carboxaldehyde thiosemicarbazone]
[6]
  Therapeutic effects against L1210 leukemia: much better therapeutic effects
[7]
  Therapeutic effects against M-109 lung carcinoma: much better therapeutic effects
[8]
  Therapeutic effects against A2780 human ovarian carcinoma: much better therapeutic effects
[9]
  Antineoplastic activity in comparison with hydroxyurea (HU): significant antineoplastic activity

## NC(=S)NN=Cc1ncccc1NC(=O)OCc1ccc(OP(=O)(O)O)cc1 [Prodrug I (disodium salt)]
[5]
  Dissolution observed in water: readily dissolved
[5]; disodium salt vs 3-AP, deionized water
  Increase in water solubility over 3-AP: more than 300 fold
[5]; disodium salt, deionized water, read-out: Total water solubility in deionized water
  solubility: ≥ 16 mg/mL
